Laboratory results reported in the supplement of paper PMC7214452.
Counter-ions that a name gives are not always drawn.

Key:
Experiment in all cases: normalized area under the dose-response curve (viability relative to DMSO control) (fraction); higher = less sensitive (more viable cells)
Conditions in all cases: exposure time not given
Se-Ax (cancer type: TCL) = test system: Se-Ax (cancer type: TCL)
Protocol: (§1)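 25 myeloma and 15 non-Hodgkin lymphoma cell lines were exposed to each of 76 drugs as 7-point log dilutions (0.01 nM–10 µM) in duplicate. Viability was read with CellTiter-Glo and normalised to DMSO (0.1%) and staurosporine (10 µM) plate controls. Normalised AUC was calculated by the trapezoidal method relative to the negative control.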

L363 (cancer type: MM) = test system: L363 (cancer type: MM)
Protocol: as §1

EJM (cancer type: MM) = test system: EJM (cancer type: MM)
Protocol: as §1

[1] = test system: OCI-MY7 (cancer type: MM)
Protocol: as §1

XG2 (cancer type: MM) = test system: XG2 (cancer type: MM)
Protocol: as §1

KMS18 (cancer type: MM) = test system: KMS18 (cancer type: MM)
Protocol: as §1

[2] = test system: OCI-MY5/Vec (cancer type: MM)
Protocol: as §1

[3] = test system: OCI-MY5/CRBN (cancer type: MM)
Protocol: as §1

[4] = test system: Mino (cancer type: Mantle)
Protocol: as §1

[5] = test system: NCI-H929 (cancer type: MM)
Protocol: as §1

[6] = test system: OCI-LY19 (cancer type: DLBCL)
Protocol: as §1

[7] = test system: OCI-LY1 (cancer type: DLBCL)
Protocol: as §1

[8] = test system: KMS28BM (cancer type: MM)
Protocol: as §1

[9] = test system: SR-786 (cancer type: TCL)
Protocol: as §1

JJN3 (cancer type: MM) = test system: JJN3 (cancer type: MM)
Protocol: as §1

[10] = test system: SU-DHL2 (cancer type: DLBCL)
Protocol: as §1

[11] = test system: KMS28PE (cancer type: MM)
Protocol: as §1

[12] = test system: Granta-519 (cancer type: Mantle)
Protocol: as §1

[13] = test system: OCI-LY3 (cancer type: DLBCL)
Protocol: as §1

My-La (cancer type: TCL) = test system: My-La (cancer type: TCL)
Protocol: as §1

LP1 (cancer type: MM) = test system: LP1 (cancer type: MM)
Protocol: as §1

OPM2 (cancer type: MM) = test system: OPM2 (cancer type: MM)
Protocol: as §1

MM1.S (cancer type: MM) = test system: MM1.S (cancer type: MM)
Protocol: as §1

KMS34 (cancer type: MM) = test system: KMS34 (cancer type: MM)
Protocol: as §1

[14] = test system: KMS12PE (cancer type: MM)
Protocol: as §1

SKMM2 (cancer type: MM) = test system: SKMM2 (cancer type: MM)
Protocol: as §1

KMS11 (cancer type: MM) = test system: KMS11 (cancer type: MM)
Protocol: as §1

MM1.R (cancer type: MM) = test system: MM1.R (cancer type: MM)
Protocol: as §1

[15] = test system: SU-DHL6 (cancer type: DLBCL)
Protocol: as §1

U266 (cancer type: MM) = test system: U266 (cancer type: MM)
Protocol: as §1

[16] = test system: OCI-MY5 (cancer type: MM)
Protocol: as §1

KMS26 (cancer type: MM) = test system: KMS26 (cancer type: MM)
Protocol: as §1

[17] = test system: JVM2 (cancer type: Mantle)
Protocol: as §1

AMO1 (cancer type: MM) = test system: AMO1 (cancer type: MM)
Protocol: as §1

[18] = test system: SU-DHL1 (cancer type: TCL)
Protocol: as §1

[19] = test system: RPMI 8226 (cancer type: MM)
Protocol: as §1

FR4 (cancer type: MM) = test system: FR4 (cancer type: MM)
Protocol: as §1

[20] = test system: JeKo-1 (cancer type: Mantle)
Protocol: as §1

[21] = test system: HuT 78 (cancer type: TCL)
Protocol: as §1

[22] = test system: Karpas-299 (cancer type: TCL)
Protocol: as §1

Structure (SMILES)	normalized area under the dose-response curve (Se-Ax (cancer type: TCL))	normalized area under the dose-response curve (L363 (cancer type: MM))	normalized area under the dose-response curve (EJM (cancer type: MM))	normalized area under the dose-response curve [1]	normalized area under the dose-response curve (XG2 (cancer type: MM))	normalized area under the dose-response curve (KMS18 (cancer type: MM))	normalized area under the dose-response curve [2]	normalized area under the dose-response curve [3]	normalized area under the dose-response curve [4]	normalized area under the dose-response curve [5]	normalized area under the dose-response curve [6]	normalized area under the dose-response curve [7]	normalized area under the dose-response curve [8]	normalized area under the dose-response curve [9]	normalized area under the dose-response curve (JJN3 (cancer type: MM))	normalized area under the dose-response curve [10]	normalized area under the dose-response curve [11]	normalized area under the dose-response curve [12]	normalized area under the dose-response curve [13]	normalized area under the dose-response curve (My-La (cancer type: TCL))	normalized area under the dose-response curve (LP1 (cancer type: MM))	normalized area under the dose-response curve (OPM2 (cancer type: MM))	normalized area under the dose-response curve (MM1.S (cancer type: MM))	normalized area under the dose-response curve (KMS34 (cancer type: MM))	normalized area under the dose-response curve [14]	normalized area under the dose-response curve (SKMM2 (cancer type: MM))	normalized area under the dose-response curve (KMS11 (cancer type: MM))	normalized area under the dose-response curve (MM1.R (cancer type: MM))	normalized area under the dose-response curve [15]	normalized area under the dose-response curve (U266 (cancer type: MM))	normalized area under the dose-response curve [16]	normalized area under the dose-response curve (KMS26 (cancer type: MM))	normalized area under the dose-response curve [17]	normalized area under the dose-response curve (AMO1 (cancer type: MM))	normalized area under the dose-response curve [18]	normalized area under the dose-response curve [19]	normalized area under the dose-response curve (FR4 (cancer type: MM))	normalized area under the dose-response curve [20]	normalized area under the dose-response curve [21]	normalized area under the dose-response curve [22]
Cc1[nH]c2ccccc2c1CCNCc1ccc(/C=C/C(=O)NO)cc1 [Panobinostat]	0.244	0.613	0.188	0.47	0.483	0.618	0.173	0.13	0.303	0.16	0.36	0.167	0.567	0.374	0.56	0.286	0.52	0.424	0.322	0.422	0.592	0.812	0.25	0.333	0.42	0.698	0.659	0.35	0.501	0.389	0.297	0.454	0.347	0.444	0.23	0.682	0.594	0.284	0.249	0.187
Cc1ccc(Nc2nccc(N(C)c3ccc4c(C)n(C)nc4c3)n2)cc1S(N)(=O)=O [Pazopanib hydrochloride]	0.732	0.666	0.861	0.78	0.876	0.732	0.764	0.855	0.939	0.77	0.859	0.906	0.921	0.789	0.628	0.931	0.796	0.899	1	0.879	0.602	0.653	0.79	0.347	0.82	0.86	0.713	0.77	0.99	0.681	0.667	0.848	0.721	0.798	0.833	0.827	0.759	0.881	0.795	0.829
Nc1cccc2c1C(=O)N(C1CCC(=O)NC1=O)C2=O (stereo not given) [Pomalidomide]	0.767	0.887	0.879	0.9	0.77	0.886	0.897	0.908	0.884	0.78	0.854	0.964	0.925	0.947	0.994	0.917	0.962	0.87	0.979	0.875	0.871	0.963	0.74	0.917	0.9	0.973	0.912	0.76	0.989	0.96	0.9	0.86	0.889	0.879	0.846	0.959	0.949	0.843	0.986	0.914
Cc1ccc(C(=O)Nc2ccc(CN3CCN(C)CC3)c(C(F)(F)F)c2)cc1C#Cc1cnc2cccnn12 [Ponatinib]	0.417	0.461	0.427	0.48	0.454	0.479	0.613	0.665	0.501	0.52	0.726	0.678	0.551	0.673	0.344	0.797	0.501	0.755	0.859	0.615	0.408	0.419	0.57	0.298	0.48	0.55	0.458	0.5	0.79	0.381	0.361	0.593	0.44	0.431	0.239	0.237	0.451	0.52	0.527	0.719
CC(C)(C)c1cc(NC(=O)Nc2ccc(-c3cn4c(n3)sc3cc(OCCN5CCOCC5)ccc34)cc2)no1 [Quizartinib]	0.825	0.751	0.861	0.91	0.763	0.737	0.894	0.917	0.863	0.88	0.923	0.987	0.838	0.869	0.631	0.956	0.898	0.941	0.959	0.917	0.766	0.531	0.82	0.439	0.87	0.973	0.828	0.69	0.907	0.867	0.65	0.934	0.764	0.837	0.686	0.955	0.923	0.98	0.865	0.93
O=C(c1ccc(OCCN2CCCCC2)cc1)c1c(-c2ccc(O)cc2)sc2cc(O)ccc12 [Raloxifene]	0.854	0.829	0.859	0.92	0.746	0.848	0.787	0.857	1.01	0.91	0.914	0.932	0.889	0.78	0.821	0.919	0.849	0.939	0.945	0.974	0.731	0.865	0.85	0.657	0.91	0.953	0.866	0.89	0.856	0.814	0.744	0.869	0.884	0.704	0.677	0.86	0.896	0.939	0.786	0.945
CNC(=O)c1cc(Oc2ccc(NC(=O)Nc3ccc(Cl)c(C(F)(F)F)c3)c(F)c2)ccn1 [Regorafenib]	0.684	0.54	0.589	0.58	0.481	0.553	0.848	0.927	0.899	0.56	0.96	1	0.565	0.91	0.436	0.955	0.695	0.901	0.964	0.84	0.558	0.594	0.52	0.35	0.62	0.636	0.546	0.53	0.916	0.48	0.468	0.844	0.715	0.549	0.57	0.543	0.642	0.879	0.697	0.892
C/C=C1\NC(=O)[C@H]2CSSCC/C=C/[C@H](CC(=O)N[C@H](C(C)C)C(=O)N2)OC(=O)[C@H](C(C)C)NC1=O [Romidepsin]	0.107	0.401	0.105	0.5	0.15	0.291	0.143	0.0857	0.178	0.09	0.198	0.118	0.271	0.148	0.324	0.188	0.262	0.209	0.203	0.109	0.447	0.445	0.23	0.206	0.24	0.511	0.382	0.33	0.385	0.21	0.13	0.257	0.148	0.224	0.113	0.433	0.152	0.174	0.0814	0.118
